System: HL-60
Assay: Inhibitory concentration which reduces half the percentage of differentiated HL-60 cells induced by 1x 10 e-9 M Am80
Assay type: functional, cell-based
Conditions: Homo sapiens

IC50: 17 nM
SMILES: CN1c2cc3c(cc2N=C(c2ccc(C(=O)O)cc2)c2ccc4ccccc4c21)C(C)(C)CCC3(C)C

Source: ChEMBL document CHEMBL1133259, “Polymethylcarborane as a novel bioactive moiety: derivatives with potent retinoid antagonistic activity” (Bioorg Med Chem Lett, 2000)
